Experimental data as given in article PMC9798004 (Frontiers in Psychiatry, 2022).
pIC50: −log10 of the molar value. Entries after “also recorded” stand apart in the source; their conditions may differ. Like-named read-outs stand apart in the source and are kept apart here.

Key:
CALCRL-RAMP2 = CALCRL-RAMP2 (Homo sapiens, UniProt O60895+Q16602); test: PathHunter β-arrestin assay; type: cell-based; details: antagonist mode vs EC80 of control agonist, 10-point curve
MCHR1 = MCHR1 (Homo sapiens, UniProt Q99705); test: PathHunter β-arrestin assay; type: cell-based; details: antagonist mode, up to 30 μM
CHRM2 = target: T1, CHRM2 (Homo sapiens, UniProt P08172); test: PathHunter β-arrestin assay; type: cell-based; details: antagonist mode vs EC80 of control agonist, 10-point curve
T1 sequence (P08172 1-466): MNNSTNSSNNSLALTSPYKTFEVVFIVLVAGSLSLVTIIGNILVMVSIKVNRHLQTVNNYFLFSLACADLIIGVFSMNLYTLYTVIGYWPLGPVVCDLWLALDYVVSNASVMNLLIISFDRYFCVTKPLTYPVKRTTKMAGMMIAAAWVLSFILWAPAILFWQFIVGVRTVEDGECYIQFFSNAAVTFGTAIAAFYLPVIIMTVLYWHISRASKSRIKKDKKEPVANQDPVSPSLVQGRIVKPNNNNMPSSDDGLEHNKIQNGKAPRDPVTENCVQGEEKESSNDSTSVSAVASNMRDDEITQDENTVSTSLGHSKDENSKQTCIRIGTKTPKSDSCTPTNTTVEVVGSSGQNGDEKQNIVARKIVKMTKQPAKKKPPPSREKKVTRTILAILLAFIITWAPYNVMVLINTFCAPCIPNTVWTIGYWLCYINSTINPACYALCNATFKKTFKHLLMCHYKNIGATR

168 GPCRs = test: gpcrMAX panel 30 μM single-point β-arrestin screen (agonist and antagonist mode); type: cell-based; details: antagonist mode
Experimental: Activity, or a “hit,” was defined as >30% in agonist mode, >35% in antagonist mode, or >50% in the orphan screen (agonist mode). Where these criteria were met, signal-to-noise (S/N) and coefficient of variation (CoV) were also calculated, defined as: […]
Agonist mode Antagonist modeS/N Compound mean/Baseline mean+(Baseline SD×3) EC80 mean/Compound-(Compound SD× 3)CoV Baseline mean/Compound mean-(Compound SD× 3) Compound mean/EC80 mean-(EC80 SD × 3)
Hits were verified to have S/N>1 and a CoV <1. Thresholds and subsequent validation were guided by Eurofins. Descriptive data (means ± S.E.M) was generated in Graphpad Prism (version 9.2.0, San Diego, CA).

ADORA3 = target: T2, ADORA3 (Homo sapiens, UniProt P0DMS8); test: PathHunter β-arrestin assay; type: cell-based; details: antagonist mode vs EC80 of control agonist, 10-point curve
T2 construct: host or cells: CHO

[1] = parameters: method as in PMID 35210552; details: rats; cited from earlier work
DRD5 = DRD5 (Homo sapiens, UniProt P21918); test: PathHunter β-arrestin assay; type: cell-based; details: antagonist mode vs EC80 of control agonist, 10-point curve
GPR35 = GPR35 (Homo sapiens, UniProt Q9HC97); test: PathHunter β-arrestin assay; type: cell-based; details: antagonist mode, up to 30 μM
ADRA2B = ADRA2B (Homo sapiens, UniProt P18089); type: cell-based
[2] = system: GPCR off-targets with >5-fold difference in S/N and CoV (n = 36); test: Follow-up concentration-response β-arrestin assays, panel of hits; type: cell-based
Experimental: Follow up experiments were prioritized based on the difference between S/N and CoV. Targets with a >5-fold difference between S/N and CoV were investigated for their potential contribution to the AMB-FUBINACA toxidrome with 10-point concentration-response curves generated in technical replicate (range 1.5–30 μM) using the EC80 of the relevant agonist, where applicable in antagonist mode. Simultaneous agonist and antagonist curves were run in parallel to ensure reliability of the assay (see Supplementary Table 2), with both RC50 and signal to background aligning with historical averages, and Z' >0.5. RC50 was estimated using a four-parameter fit (CBIS Data Analysis Suite, ChemInnovation, San Diego, CA) on normalized data.

DRD2L = DRD2L (Homo sapiens, UniProt P14416); test: PathHunter β-arrestin assay; type: cell-based; details: antagonist mode, up to 30 μM
[3] = system: AtT20 cells expressing human CB1 (hCB1); test: LDH release cytotoxicity assay; type: cell-based; details: 30 μM
Experimental: AtT20 cells expressing either human CB1 (hCB1) or CB2 (hCB2) receptors or wildtype (WT) were grown to confluence in T75 cm^2 flasks in Dulbecco's modified eagle medium containing 10% fetal bovine serum, 100 U penicillin/streptomycin, and 80 μg/mL hygromicyin (Sigma-Aldrich/Merck; Castle Hill, NSW, Australia). Cells were plated in 96-well-microplates at 30,000 cells per well and allowed to adhere overnight in 5% CO2. The following morning, cells were treated with either vehicle (0.1% DMSO; negative control), 30 μM Δ^9-THC, or 30 μM AMB-FUBINACA. At 1 or 6 h, the amount of lactate dehydrogenase in the cell media was tested, and compared with positive control (lysed cells) as per manufacturer's instructions (Dojindo Molecular Technologies, Inc.; Rockville, MD, USA), with readings performed on a Clariostar Plus plate reader (BMG Labtech, Mornington, VIC, Australia). Experiments were performed in triplicate. In order to measure any accumulating LDH, media was not changed after initial incubation. Data is represented as means ± S.E.M. A two-way ANOVA with was performed on the data at each time point, with Tukey's multiple comparison test (α = 0.05). A p < 0.05 was considered statistically significant.

CALCR-RAMP2 = CALCR-RAMP2 (Homo sapiens, UniProt O60895+P30988); test: PathHunter β-arrestin assay; type: cell-based; details: antagonist mode vs EC80 of control agonist, 10-point curve
MC3R = MC3R (Homo sapiens, UniProt P41968); test: PathHunter β-arrestin assay; type: cell-based; details: antagonist mode vs EC80 of control agonist, 10-point curve
ADRA2A = target: T3, ADRA2A (Homo sapiens, UniProt P08913); test: PathHunter β-arrestin assay; type: cell-based; details: antagonist mode vs EC80 of control agonist, 10-point curve
T3 construct: host or cells: CHO

UTR2 = UTR2 (Homo sapiens, UniProt Q9UKP6); test: PathHunter β-arrestin assay; type: cell-based; details: antagonist mode, up to 30 μM
MC4R = MC4R (Homo sapiens, UniProt P32245); test: PathHunter β-arrestin assay; type: cell-based; details: antagonist mode vs EC80 of control agonist, 10-point curve
CB1 = system: CB1; parameters: method as in PMID 31513380; details: 10 μM; cited from earlier work

MCHR1, sequence (Q99705 whole entry): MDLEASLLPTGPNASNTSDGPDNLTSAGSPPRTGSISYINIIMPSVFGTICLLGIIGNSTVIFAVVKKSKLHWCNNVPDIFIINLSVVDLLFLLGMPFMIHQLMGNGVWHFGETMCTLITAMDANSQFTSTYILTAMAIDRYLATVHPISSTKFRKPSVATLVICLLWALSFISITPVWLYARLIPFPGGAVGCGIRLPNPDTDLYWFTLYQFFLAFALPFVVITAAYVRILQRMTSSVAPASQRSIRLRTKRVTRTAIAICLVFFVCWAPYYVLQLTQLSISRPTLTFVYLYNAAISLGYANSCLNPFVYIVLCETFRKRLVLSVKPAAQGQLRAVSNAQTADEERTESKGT
ADRA2B, sequence (P18089 whole entry): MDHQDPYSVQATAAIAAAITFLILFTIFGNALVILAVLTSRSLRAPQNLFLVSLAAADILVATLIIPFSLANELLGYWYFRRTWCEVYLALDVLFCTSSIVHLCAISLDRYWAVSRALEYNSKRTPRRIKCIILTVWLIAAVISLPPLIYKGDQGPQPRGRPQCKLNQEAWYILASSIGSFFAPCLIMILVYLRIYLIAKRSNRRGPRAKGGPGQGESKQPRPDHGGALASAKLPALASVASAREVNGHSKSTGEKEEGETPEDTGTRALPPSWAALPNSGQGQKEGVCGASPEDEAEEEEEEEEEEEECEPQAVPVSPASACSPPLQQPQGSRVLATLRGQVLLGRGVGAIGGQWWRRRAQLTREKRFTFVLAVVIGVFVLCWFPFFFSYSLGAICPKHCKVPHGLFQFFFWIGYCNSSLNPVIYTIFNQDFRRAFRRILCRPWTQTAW
DRD2L, sequence (P14416 whole entry): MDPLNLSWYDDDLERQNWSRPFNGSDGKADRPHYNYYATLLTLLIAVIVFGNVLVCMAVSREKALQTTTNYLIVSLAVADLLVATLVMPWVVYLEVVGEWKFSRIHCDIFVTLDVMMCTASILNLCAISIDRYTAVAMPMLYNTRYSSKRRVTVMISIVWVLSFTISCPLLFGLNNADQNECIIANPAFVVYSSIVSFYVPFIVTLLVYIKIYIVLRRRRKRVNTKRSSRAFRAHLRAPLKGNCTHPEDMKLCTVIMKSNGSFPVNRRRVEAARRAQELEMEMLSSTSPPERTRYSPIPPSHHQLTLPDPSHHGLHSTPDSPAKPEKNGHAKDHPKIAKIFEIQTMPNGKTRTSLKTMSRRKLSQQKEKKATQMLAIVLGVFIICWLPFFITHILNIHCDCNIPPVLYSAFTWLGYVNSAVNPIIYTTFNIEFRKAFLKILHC
MC3R, sequence (P41968 whole entry): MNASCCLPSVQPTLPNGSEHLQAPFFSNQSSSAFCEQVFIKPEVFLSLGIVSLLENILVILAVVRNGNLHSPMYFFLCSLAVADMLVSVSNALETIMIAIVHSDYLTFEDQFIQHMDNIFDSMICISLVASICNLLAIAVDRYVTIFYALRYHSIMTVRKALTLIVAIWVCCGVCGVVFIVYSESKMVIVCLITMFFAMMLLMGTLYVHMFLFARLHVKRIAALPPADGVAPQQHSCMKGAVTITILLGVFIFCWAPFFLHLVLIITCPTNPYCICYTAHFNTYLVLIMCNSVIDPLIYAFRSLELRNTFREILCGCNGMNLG
DRD5, sequence (P21918 whole entry): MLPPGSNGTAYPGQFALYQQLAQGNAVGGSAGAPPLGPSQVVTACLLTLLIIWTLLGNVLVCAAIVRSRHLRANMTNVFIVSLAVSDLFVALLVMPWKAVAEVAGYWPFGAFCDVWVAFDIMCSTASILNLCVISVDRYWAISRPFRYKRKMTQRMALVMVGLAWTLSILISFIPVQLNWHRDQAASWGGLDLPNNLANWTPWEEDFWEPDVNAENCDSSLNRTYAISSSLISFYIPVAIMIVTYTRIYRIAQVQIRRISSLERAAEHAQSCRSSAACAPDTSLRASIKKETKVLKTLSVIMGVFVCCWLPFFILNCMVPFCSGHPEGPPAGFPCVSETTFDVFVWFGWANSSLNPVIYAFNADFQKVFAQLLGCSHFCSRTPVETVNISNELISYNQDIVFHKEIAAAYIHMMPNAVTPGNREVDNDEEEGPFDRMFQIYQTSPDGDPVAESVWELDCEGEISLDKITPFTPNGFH
CALCRL-RAMP2, sequence (Q16602 23-461): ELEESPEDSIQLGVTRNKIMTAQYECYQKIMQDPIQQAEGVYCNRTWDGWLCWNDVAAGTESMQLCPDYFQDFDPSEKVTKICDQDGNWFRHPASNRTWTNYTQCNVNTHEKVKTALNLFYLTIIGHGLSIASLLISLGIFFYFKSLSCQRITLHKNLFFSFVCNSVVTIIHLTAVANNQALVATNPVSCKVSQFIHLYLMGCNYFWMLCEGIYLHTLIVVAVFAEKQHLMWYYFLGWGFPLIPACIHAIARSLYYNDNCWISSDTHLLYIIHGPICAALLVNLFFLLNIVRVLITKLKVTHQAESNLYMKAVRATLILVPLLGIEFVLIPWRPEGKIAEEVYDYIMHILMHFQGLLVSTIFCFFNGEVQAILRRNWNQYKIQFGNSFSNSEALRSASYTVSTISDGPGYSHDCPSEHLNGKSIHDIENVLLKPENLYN
CALCRL-RAMP2, sequence (O60895 43-175 partner): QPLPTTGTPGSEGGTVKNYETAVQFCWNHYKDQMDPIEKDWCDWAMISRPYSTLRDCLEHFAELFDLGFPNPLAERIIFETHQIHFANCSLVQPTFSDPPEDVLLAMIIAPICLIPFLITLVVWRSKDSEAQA
MC4R, sequence (P32245 whole entry): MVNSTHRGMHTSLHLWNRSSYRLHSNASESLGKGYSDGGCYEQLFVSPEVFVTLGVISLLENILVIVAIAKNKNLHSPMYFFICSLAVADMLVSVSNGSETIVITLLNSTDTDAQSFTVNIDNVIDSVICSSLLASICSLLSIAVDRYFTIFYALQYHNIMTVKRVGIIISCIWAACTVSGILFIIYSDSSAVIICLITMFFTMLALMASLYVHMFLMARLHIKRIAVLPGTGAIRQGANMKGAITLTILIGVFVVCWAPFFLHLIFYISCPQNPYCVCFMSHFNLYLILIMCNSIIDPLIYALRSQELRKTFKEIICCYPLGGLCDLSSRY
T3 sequence (P08913 whole entry): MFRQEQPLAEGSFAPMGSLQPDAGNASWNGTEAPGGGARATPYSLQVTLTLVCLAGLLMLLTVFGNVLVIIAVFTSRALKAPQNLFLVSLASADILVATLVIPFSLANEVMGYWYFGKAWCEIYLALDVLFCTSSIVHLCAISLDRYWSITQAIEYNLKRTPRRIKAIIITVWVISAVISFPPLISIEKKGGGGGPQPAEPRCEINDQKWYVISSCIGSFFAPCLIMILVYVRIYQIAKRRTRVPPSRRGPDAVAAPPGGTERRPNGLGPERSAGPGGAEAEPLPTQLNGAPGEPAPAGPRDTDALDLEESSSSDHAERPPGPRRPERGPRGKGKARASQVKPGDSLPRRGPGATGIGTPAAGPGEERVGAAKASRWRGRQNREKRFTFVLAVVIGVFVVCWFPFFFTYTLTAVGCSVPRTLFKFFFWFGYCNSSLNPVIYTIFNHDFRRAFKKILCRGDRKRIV
UTR2, sequence (Q9UKP6 whole entry): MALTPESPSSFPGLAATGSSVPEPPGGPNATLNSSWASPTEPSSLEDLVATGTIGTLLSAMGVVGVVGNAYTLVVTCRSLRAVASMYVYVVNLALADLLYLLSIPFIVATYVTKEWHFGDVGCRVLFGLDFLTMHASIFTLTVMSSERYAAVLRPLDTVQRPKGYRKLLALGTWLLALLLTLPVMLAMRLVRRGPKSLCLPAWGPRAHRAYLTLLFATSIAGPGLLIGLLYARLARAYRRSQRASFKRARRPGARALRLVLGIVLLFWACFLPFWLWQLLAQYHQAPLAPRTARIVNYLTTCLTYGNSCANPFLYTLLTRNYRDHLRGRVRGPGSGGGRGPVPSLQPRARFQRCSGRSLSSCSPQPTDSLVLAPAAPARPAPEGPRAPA
T2 sequence (P0DMS8 whole entry): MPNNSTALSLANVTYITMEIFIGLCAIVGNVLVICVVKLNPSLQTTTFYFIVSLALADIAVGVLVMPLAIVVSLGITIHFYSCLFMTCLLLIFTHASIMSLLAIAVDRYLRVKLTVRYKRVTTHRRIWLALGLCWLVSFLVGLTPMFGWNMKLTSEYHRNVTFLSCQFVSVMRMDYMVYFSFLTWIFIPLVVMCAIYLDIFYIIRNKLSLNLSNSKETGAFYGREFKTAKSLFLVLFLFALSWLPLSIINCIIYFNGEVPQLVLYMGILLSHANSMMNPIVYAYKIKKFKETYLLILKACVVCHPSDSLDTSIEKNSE
GPR35, sequence (Q9HC97 whole entry): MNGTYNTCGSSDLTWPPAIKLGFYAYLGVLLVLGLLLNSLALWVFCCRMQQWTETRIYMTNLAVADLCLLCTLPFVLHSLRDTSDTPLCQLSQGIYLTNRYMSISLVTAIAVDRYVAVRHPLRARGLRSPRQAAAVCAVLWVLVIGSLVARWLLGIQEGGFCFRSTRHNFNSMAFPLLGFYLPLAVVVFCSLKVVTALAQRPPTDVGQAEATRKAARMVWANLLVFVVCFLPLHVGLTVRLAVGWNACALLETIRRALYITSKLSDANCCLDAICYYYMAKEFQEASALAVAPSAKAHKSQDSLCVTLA

COC(=O)[C@@H](NC(=O)c1nn(Cc2ccc(F)cc2)c2ccccc12)C(C)C [AMB-FUBINACA]
pIC50 (CALCRL-RAMP2): 5.00
inhibitory activity in concentration-response (MCHR1): Activity was only observed at the highest concentration (30 μM); also recorded: only inhibited at the highest 30 μM concentration
pIC50 (CHRM2): 4.89
mean inhibition 30 μM, targets with >5-fold difference in S/N and CoV (n = 36) (168 GPCRs): 97.00 ± 2.54%
mean inhibition of targets inhibited above 35% threshold (168 GPCRs): 81.16%
number of off-targets inhibited (>35%) (168 GPCRs): inhibited the greatest number of targets
pIC50 (ADORA3): 4.84
brain concentration relative to plasma [1]: ~ 5 fold
pIC50 (DRD5): 4.97
inhibitory activity in concentration-response (GPR35): did not produce any clear activity
pIC50 (ADRA2B): 5.64
inhibitory activity at lower concentrations (ADRA2B; antagonist mode, 1 μM): appreciable inhibitory activity
pIC50 ([2]; antagonist mode (Figure 4), read-out: potencies at targets other than CB1): < 6.00
pIC50 ([2]; antagonist mode vs EC80 agonist, concentrations up to 30 μM, read-out: IC50 at 12 receptors (Figure 5)): < 4.52
inhibitory activity in concentration-response (DRD2L): Activity was only observed at the highest concentration (30 μM); also recorded: only inhibited at the highest 30 μM concentration
LDH in cell media, normalized to total LDH ([3]; 1 h): 17.09 ± 7.03%
LDH increase compared with vehicle ([3]; 6 h): not observed
pIC50 (CALCR-RAMP2): 4.97
pIC50 (MC3R): 5.18
pIC50 (ADRA2A): 4.92
inhibitory activity in concentration-response (UTR2): did not produce any clear activity
pIC50 (MC4R): 5.23
time to peak β-arrestin-2 recruitment (CB1): < 10 min
